# In patent publication US7244738B2, “Arylamine-substituted quinazolinone compounds useful as alpha 1A/B adrenergic receptor antagonists” (Roche Palo Alto LLC, priority 2003, dated 2007):
row,SMILES,melting point [°C]
1,"COc1cc2[nH]c(N(C)Cc3cccc(C4=NCCO4)c3)nc(=O)c2c(OC)c1OC [Example 11, 2-{[3-(4,5-Dihydro-oxazol-2-yl)-benzyl]-methyl-amino}-5,6,7-trimethoxy-1H-quinazolin-4-one]",202.3 to 203.4
2,"COc1cc2[nH]c(N(C)Cc3ccc(N4CCCC4=O)cc3)nc(=O)c2c(OC)c1OC [Example 12, 5,6,7-Trimethoxy-2-{methyl-[4-(2-oxo-pyrrolidin-1-yl)-benzyl]-amino}-1H-quinazolin-4-one]",195.9 to 197.4
3,"C=CCN1Cc2ccc(CN(C)c3nc(=O)c4c(OC)c(OC)c(OC)cc4[nH]3)cc2C1 [Example 13, 2-[(2-Allyl-2,3-dihydro-1H-isoindol-5-ylmethyl)-methyl-amino]-5,6,7-trimethoxy-1H-quinazolin-4-one]",133.7 to 136.6
4,"COc1cc2[nH]c(N(C)Cc3ccc(OCC(O)CO)cc3)nc(=O)c2c(C)c1OC (stereo not shown) [Example 14, 2-{[4-(2,3-Dihydroxy-propoxy)-benzyl]-methyl-amino}-6,7-dimethoxy-5-methyl-1H-quinazolin-4-one]",199.7 to 201.9
5,"COc1ccc(CN(C)c2nc(=O)c3c(C)c(OC)c(OC)cc3[nH]2)cc1OCCN(C)CCO [Example 16, 2-[(3-{2-[(2-Hydroxy-ethyl)-methyl-amino]-ethoxy}-4-methoxy-benzyl)-methyl-amino]-6,7-dimethoxy-5-methyl-1H-quinazolin-4-one]",144.8 to 146.2
6,"COc1cc2[nH]c(N(C)Cc3cccc(CN(C)S(C)(=O)=O)c3)nc(=O)c2c(C)c1OC [Example 17, N-(3-{[(6,7-Dimethoxy-5-methyl-4-oxo-1,4-dihydro-quinazolin-2-yl)-methyl-amino]-methyl}-benzyl)-N-methyl-methanesulfonamide]",223.9 to 225.9
7,"COCCN1Cc2ccc(CN(C)c3nc(=O)c4c(OC)c(OC)c(OC)cc4[nH]3)cc2C1 [Example 18, 5,6,7-Trimethoxxy-2-{[2-(2-methoxy-ethyl)-2,3-dihydro-1H-isoindol-5-ylmethyl]-methyl-amino}-1H-quinazolin-4-one]",133.3 to 136.6
8,"COCCN1Cc2ccc(CN(C)c3nc(=O)c4c(C)c(OC)c(OC)cc4[nH]3)cc2C1 [Example 19, 6,7-Dimethoxy-2-{[2-(2-methoxy-ethyl)-2,3-dihydro-1H-isoindol-5-ylmethyl]-methyl-amino}-5-methyl-1H-quinazolin-4-one]",173.3 to 177.9
9,"COc1cc2[nH]c(N(C)Cc3cccc(N4CCC(OC)C4=O)c3)nc(=O)c2c(OC)c1OC (stereo not shown) [Example 20, 5,6,7-Trimethoxy-2-{[3-(3-methoxy-2-oxo-prrolidin-1-yl)-benzyl]-methyl-amino}-1H-quinazolin-4-one]",90.2 to 94.7
10,"COc1cc2[nH]c(N(C)Cc3ccc(CN(C)S(C)(=O)=O)cc3)nc(=O)c2c(OC)c1OC [Example 21, N-Methyl-N-(4-{[methyl-(5,6,7-trimethoxy-4-oxo-1,4-dihydro-quinazolin-2-yl)-amino]-methyl}-benzyl)-methanesulfonamide]",148.8 to 151
11,"CNCCc1ccc(CN(C)c2nc(=O)c3c(C)c(OC)c(OC)cc3[nH]2)cc1 [Example 23, 6,7-Dimethoxy-5-methyl-2-{methyl-[4-(2-methylamino-ethyl)-benzyl]-amino}-1H-quinazolin-4-onbe]",154.6 to 159
12,"COc1cc2[nH]c(N(C)Cc3cccc(N4C[C@@H](O)CC4=O)c3)nc(=O)c2c(OC)c1OC [Example 24, 2-{[3-((S)-4-Hydroxy-2-oxo-pyrrolidin-1-yl)-benzyl]-methyl-amino}-5,6,7-trimethoxy-1H-quinazolin-4-one]",207.5 to 209.9
13,"CCN(C)CCOc1ccc(CN(C)c2nc(=O)c3c(C)c(OC)c(OC)cc3[nH]2)cc1OC [Example 25, 2-({4-[2-(Ethyl-methyl-amino)-ethoxy]-3-methoxy-benzyl}-methyl-amino)-6,7-dimethoxy-5-methyl-1H-quinazolin-4-one]",158.1 to 159.2
